Data published in the NIST ThermoML archive (doi:10.1021/je500395f).

Details: Fluid (supercritical or subcritical phases), Coaxial cylinder method

CCC [propane]
Details | thermal conductivity [W/m/K]
371.05 K, 4555 kPa | 0.06855
371.05 K, 4560 kPa | 0.06824
371.05 K, 4590 kPa | 0.06782
371.05 K, 4715 kPa | 0.06718
371.05 K, 4720 kPa | 0.06705
371.05 K, 4840 kPa | 0.06668
371.05 K, 5000 kPa | 0.06707
371.05 K, 5200 kPa | 0.06747
371.05 K, 5350 kPa | 0.06773
371.05 K, 5672 kPa | 0.06829
371.05 K, 6100 kPa | 0.06917
371.05 K, 6200 kPa | 0.06927
371.05 K, 6800 kPa | 0.06996
371.05 K, 7500 kPa | 0.07147
371.05 K, 8500 kPa | 0.07339
371.05 K, 8900 kPa | 0.07424
371.05 K, 9500 kPa | 0.07498
371.05 K, 11600 kPa | 0.07756
371.97 K, 3025 kPa | 0.03301
371.97 K, 3070 kPa | 0.03313
371.97 K, 3701 kPa | 0.03655
371.97 K, 3803 kPa | 0.03783
371.97 K, 4286 kPa | 0.04983
371.97 K, 4294 kPa | 0.05055
371.97 K, 4312 kPa | 0.05267
371.97 K, 4324 kPa | 0.05459
371.97 K, 4336 kPa | 0.05724
371.97 K, 4342 kPa | 0.05915
371.97 K, 4348 kPa | 0.06124
371.97 K, 4354 kPa | 0.06361
371.97 K, 4362 kPa | 0.0676
371.97 K, 4366 kPa | 0.07025
371.97 K, 4368 kPa | 0.07149
371.97 K, 4370 kPa | 0.07274
371.97 K, 4374 kPa | 0.07488
371.97 K, 4378 kPa | 0.07749
371.97 K, 4380 kPa | 0.07923
371.97 K, 4382 kPa | 0.07986
371.97 K, 4384 kPa | 0.08174
371.97 K, 4386 kPa | 0.08308
371.97 K, 4388 kPa | 0.08481
371.97 K, 4390 kPa | 0.08662
371.97 K, 4392 kPa | 0.08774
371.97 K, 4394 kPa | 0.08968
371.97 K, 4396 kPa | 0.09177
371.97 K, 4398 kPa | 0.09312
371.97 K, 4400 kPa | 0.09429
371.97 K, 4402 kPa | 0.09604
371.97 K, 4404 kPa | 0.09739
371.97 K, 4406 kPa | 0.09807
371.97 K, 4408 kPa | 0.09854
371.97 K, 4410 kPa | 0.09918
371.97 K, 4412 kPa | 0.09961
371.97 K, 4414 kPa | 0.09999
371.97 K, 4416 kPa | 0.1001
371.97 K, 4418 kPa | 0.1001
371.97 K, 4420 kPa | 0.09965
371.97 K, 4425 kPa | 0.09676
371.97 K, 4430 kPa | 0.09369
371.97 K, 4435 kPa | 0.09161
371.97 K, 4440 kPa | 0.08782
371.97 K, 4445 kPa | 0.08423
371.97 K, 4450 kPa | 0.08092
371.97 K, 4455 kPa | 0.07787
371.97 K, 4460 kPa | 0.07642
371.97 K, 4465 kPa | 0.07505
371.97 K, 4475 kPa | 0.07322
371.97 K, 4490 kPa | 0.07226
371.97 K, 4500 kPa | 0.07021
371.97 K, 4505 kPa | 0.06997
371.97 K, 4530 kPa | 0.06877
371.97 K, 4550 kPa | 0.06759
371.97 K, 4570 kPa | 0.06665
371.97 K, 4650 kPa | 0.06636
371.97 K, 4740 kPa | 0.06618
371.97 K, 4850 kPa | 0.06602
371.97 K, 5200 kPa | 0.06643
371.97 K, 5900 kPa | 0.06801
371.97 K, 6400 kPa | 0.06923
371.97 K, 6800 kPa | 0.07002
371.97 K, 7600 kPa | 0.07152
371.97 K, 8810 kPa | 0.07269
371.97 K, 15100 kPa | 0.08067
373.2 K, 3103 kPa | 0.03319
373.2 K, 3450 kPa | 0.03488
373.2 K, 3780 kPa | 0.03746
373.2 K, 3820 kPa | 0.03788
373.2 K, 4030 kPa | 0.04085
373.2 K, 4060 kPa | 0.04149
373.2 K, 4150 kPa | 0.04361
373.2 K, 4230 kPa | 0.04611
373.2 K, 4270 kPa | 0.04756
373.2 K, 4346 kPa | 0.05156
373.2 K, 4384 kPa | 0.05498
373.2 K, 4404 kPa | 0.05788
373.2 K, 4416 kPa | 0.05996
373.2 K, 4428 kPa | 0.0626
373.2 K, 4436 kPa | 0.06499
373.2 K, 4444 kPa | 0.06754
373.2 K, 4450 kPa | 0.06964
373.2 K, 4452 kPa | 0.07037
373.2 K, 4462 kPa | 0.07388
373.2 K, 4466 kPa | 0.07545
373.2 K, 4470 kPa | 0.07719
373.2 K, 4476 kPa | 0.07958
373.2 K, 4482 kPa | 0.08175
373.2 K, 4484 kPa | 0.0824
373.2 K, 4486 kPa | 0.08306
373.2 K, 4494 kPa | 0.08512
373.2 K, 4496 kPa | 0.08547
373.2 K, 4498 kPa | 0.08584
373.2 K, 4500 kPa | 0.0862
373.2 K, 4502 kPa | 0.08638
373.2 K, 4504 kPa | 0.08656
373.2 K, 4506 kPa | 0.08685
373.2 K, 4508 kPa | 0.08693
373.2 K, 4510 kPa | 0.0873
373.2 K, 4518 kPa | 0.08768
373.2 K, 4524 kPa | 0.08658
373.2 K, 4530 kPa | 0.08552
373.2 K, 4536 kPa | 0.08417
373.2 K, 4544 kPa | 0.08185
373.2 K, 4550 kPa | 0.07994
373.2 K, 4556 kPa | 0.07815
373.2 K, 4564 kPa | 0.07643
373.2 K, 4568 kPa | 0.07532
